Experiment [1] relates to P. aeruginosa (PA01) in biofilm. Put plainly: Antimicrobial efficacy in relation to bacteria in biofilm (24 hours old). Type of experiment: cell-based. As to conditions: for Log10 reduction factor: biofilm, starting number > 8 log10 cfu/cm^2.
Experiment [2] has as its system Legionella pneumophilia (ATCC 33152). It counts as cell-based. The conditions noted are these: pH 8.0, 0.005% yeast extract.

Read-outs that look alike come from different tables or passages of the source.

As to `OO` [H2O2, hydrogen peroxide], the Log10 reduction factor in experiment [1] (1.7% solution, 5 min exposure) is given as 0.84 Log10; in experiment [1] (1.7% solution, 15 min exposure), 1.62 Log10; in experiment [1] (1.7% solution, 30 min exposure), 1.95 Log10; in experiment [1] (1.7% solution, 60 min exposure), 2.53 Log10; in experiment [1] (17% aqueous solution, 5 min exposure), >8.00 Log10; in experiment [1] (17% aqueous solution, 15 min exposure), >8.00 Log10. The Log10 reduction factor was >8.00 Log10 in experiment [1] (17% aqueous solution, 30 min exposure); >8.00 Log10 in experiment [1] (17% aqueous solution, 60 min exposure); 2.24 Log10 in experiment [2] (7.50% aqueous solution, 15 min exposure); 3.44 Log10 in experiment [2] (7.50% aqueous solution, 30 min exposure); 4.25 Log10 in experiment [2] (7.50% aqueous solution, 60 min exposure); 4.83 Log10 in experiment [2] (7.50% aqueous solution, 120 min exposure). In addition, the “antimicrobial efficacy in biofilms (in words)” value in experiment [1] (1.7%, compared to 17% H2O2 and 100% PAM) is listed as “significant loss of antimicrobial efficacy”. Moreover, the “antimicrobial efficacy in relation to biofilms (in words)” value in experiment [1] (17%) is “high and substantially equivalent”. The “antimicrobial effect in relation to the test organisms in biofilms 24 hours old (in words)” value in experiment [1] (17% solution, after just 5 minutes of exposure time) is listed as “high antimicrobial effect”.
With “polyoxyethylene (20) sorbitan monooleate [PSb 80]”, the Log10 reduction factor stood at 0.06 Log10 in experiment [2] (aqueous 1% solution, 15 min exposure); 0.09 Log10 in experiment [2] (aqueous 1% solution, 30 min exposure); 0.09 Log10 in experiment [2] (aqueous 1% solution, 60 min exposure); 0.11 Log10 in experiment [2] (aqueous 1% solution, 120 min exposure).

The values above are taken from patent publication US11109590B2 (priority 2017, dated 2021).
